Article PMC5342526, “Identification of Bisindolylmaleimide IX as a potential agent to treat drug-resistant BCR-ABL positive leukemia” (Oncotarget, 2016)
Where two headings read alike, the source gives them in different places.

What was measured:
γH2AX foci in MEFs = assay: γH2AX DNA damage foci, immunofluorescent staining; format: cell-based, mouse; details: 2.5 μM, 4 hrs
Description: MEFs or HCT116 cells were cultured on cover slips while Baf3 cells were cultured on slides coated by 0.1mg/ml poly-L-lysine, washed with phosphate-buffered saline (PBS) twice, and then fixed in 4% paraformaldehyde (PFA), which were permeabilized with 0.1% Triton X in PBS for 30 minutes at room temperature. The primary antibodies were diluted in PBS with 1% BSA (1:200). The slides were blocked (1% BSA in PBS) for 60 minutes at room temperature, incubated with primary antibodies overnight at 4°C, and followed by secondary antibody incubation for 60 min at RT. The slides were then mounted and observed under confocal microscope (Leica, Germany). Antibodies against γH2AX were from Bethyl Corporation.

[1] = tested on: B-Raf in BCR-ABL positive BaF3 cells; assay: B-Raf phosphorylation, western blot; format: cell-based, murine
Description: (§1) Activation and expression of Erk, Mek1, and Raf were determined by western blot. B. Inhibition of Erk decreased the cell survival rates in BaF3 cells expressing BCR-ABL compared to control cells. […] C. […] N=3. Right panel: Western blot results showing that B-Raf was knocked down in these cells.

[2] = Precipitation in cell cultures; format: physicochemical
Jak2 = Jak2 (Homo sapiens, UniProt O60674); assay: Z'-LYTE in vitro kinase assay; format: biochemical; details: mean ±SEM
Vector BaF3 cells = assay: Wst-1 cell survival assay; format: cell-based, murine; details: Mus musculus, Vector BaF3, 24 hrs
Excerpt: The reference wavelength was 630 nm.

K562 cells = assay: Wst-1 cell survival assay; details: for IC50: Homo sapiens, read-out: IC50, cell survival
Description: (§4) We then evaluated the cytotoxic effect of Bisindolylmaleimide IX in MEFs and HCT116 cells. Different doses of Bisindolylmaleimide IX were applied to the cell cultures and cell survival rates and IC50 were determined with Wst-1 assay.
(§5) To measure cell survival rates after Bisindolylmaleimide IX treatment, cells were plated at 1×10^4 in 96 well plates and cultured for overnight, which were then treated with Bisindolylmaleimide IX for 48 hrs. Cell proliferation reagent WST-1 (Roche) was added to each well and was further incubated for 4 hrs at 37°C. The absorbance was measured against a control using microplate reader at 440 nm. The reference wavelength was 630 nm.

p53 in primary MEFs = assay: p53 protein level by western blot (screen)
Description: Cells were lysed in TNEN buffer (50 mM Tris, 150 mM NaCl, 5 mM EDTA, 0.5% NP-40, and 0.1% Triton X-100) supplemented with 1 mM NaF, Na2VO3, 1 mM PMSF, and 1 μg/ml of aprotonin, leupeptin, and pepstatin A. Protein concentrations were determined using a Bio-Rad assay. Proteins were resolved by SDS-PAGE and transferred to polyvinylidene difluoride membranes (Millipore).

Vector MEF cells = assay: Wst-1 cell survival assay; details: Mus musculus, 24 h, read-out: IC50, cell survival
Description: as §4, §5

ERK1 = biological target: T1, ERK1 (Homo sapiens, UniProt P27361); assay: Z'-LYTE in vitro kinase assay; format: biochemical
T1 construct: made in house; host or cells: Escherichia coli BL21-Codon Plus (DE3)
T1 sequence (P27361 whole entry, species assumed): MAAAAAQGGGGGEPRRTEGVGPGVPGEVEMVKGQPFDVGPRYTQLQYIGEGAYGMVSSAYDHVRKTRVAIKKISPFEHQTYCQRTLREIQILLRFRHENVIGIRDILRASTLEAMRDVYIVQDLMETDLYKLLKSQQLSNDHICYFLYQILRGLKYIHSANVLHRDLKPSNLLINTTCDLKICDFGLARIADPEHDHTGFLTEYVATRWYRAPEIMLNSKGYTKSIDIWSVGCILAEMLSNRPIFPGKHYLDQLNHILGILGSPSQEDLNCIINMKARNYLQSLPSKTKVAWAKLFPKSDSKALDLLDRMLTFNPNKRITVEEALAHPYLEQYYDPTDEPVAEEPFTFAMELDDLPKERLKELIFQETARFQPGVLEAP
Description: (§2) The recombinant Auror, B-Raf, IKKβ, SYK, BCR-Abl, MEK1 and Erk1 proteins were expressed in Escherichia coli strain BL21-Codon Plus (DE3), purified by Ni-NTA Agarose (QIAGEN). The kinase assays were carried out with the Z'-LYTETM Kinase Assay kit using Ser/Thr3 Peptide substrate (Invitrogen). The reactions were carried out according to the Z-LYTE protocol and the results were read on an EnVision plate reader. All reactions were carried out in triplicate. Data were expressed as mean ±SEM.

BCR-ABL = BCR-ABL (Homo sapiens, UniProt P00519); assay: Z'-LYTE in vitro kinase assay; format: biochemical
Sequence of BCR-ABL (P00519 27-1130): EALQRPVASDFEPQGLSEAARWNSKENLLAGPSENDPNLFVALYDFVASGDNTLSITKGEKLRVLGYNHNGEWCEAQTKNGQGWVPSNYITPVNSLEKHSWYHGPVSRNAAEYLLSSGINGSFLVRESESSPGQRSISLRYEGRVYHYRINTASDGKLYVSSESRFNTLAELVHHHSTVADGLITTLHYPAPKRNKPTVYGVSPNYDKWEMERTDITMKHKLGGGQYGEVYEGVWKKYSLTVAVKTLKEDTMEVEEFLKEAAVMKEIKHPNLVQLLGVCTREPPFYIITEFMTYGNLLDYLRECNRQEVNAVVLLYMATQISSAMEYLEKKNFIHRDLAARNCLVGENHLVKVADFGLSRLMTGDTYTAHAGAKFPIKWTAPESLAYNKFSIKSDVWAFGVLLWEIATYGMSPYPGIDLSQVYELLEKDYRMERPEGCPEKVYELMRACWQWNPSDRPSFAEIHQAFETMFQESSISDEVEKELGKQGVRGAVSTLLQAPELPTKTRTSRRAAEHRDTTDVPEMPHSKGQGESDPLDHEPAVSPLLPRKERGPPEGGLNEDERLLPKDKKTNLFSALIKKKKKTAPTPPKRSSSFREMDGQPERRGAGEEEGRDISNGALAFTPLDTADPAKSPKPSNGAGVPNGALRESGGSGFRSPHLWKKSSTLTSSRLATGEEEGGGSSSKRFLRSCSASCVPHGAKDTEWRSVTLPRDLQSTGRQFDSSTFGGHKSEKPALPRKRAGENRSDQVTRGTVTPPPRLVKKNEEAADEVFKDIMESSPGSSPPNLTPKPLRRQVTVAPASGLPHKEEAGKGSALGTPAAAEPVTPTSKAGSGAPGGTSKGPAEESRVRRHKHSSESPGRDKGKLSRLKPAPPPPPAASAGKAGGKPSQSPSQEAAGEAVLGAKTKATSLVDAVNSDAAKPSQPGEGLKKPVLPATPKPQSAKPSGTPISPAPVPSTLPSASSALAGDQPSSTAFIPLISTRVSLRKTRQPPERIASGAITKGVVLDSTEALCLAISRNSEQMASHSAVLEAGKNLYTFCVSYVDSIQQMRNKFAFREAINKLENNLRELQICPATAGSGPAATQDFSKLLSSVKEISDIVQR
Sequence of BCR-ABL (P11274 1-927 partner): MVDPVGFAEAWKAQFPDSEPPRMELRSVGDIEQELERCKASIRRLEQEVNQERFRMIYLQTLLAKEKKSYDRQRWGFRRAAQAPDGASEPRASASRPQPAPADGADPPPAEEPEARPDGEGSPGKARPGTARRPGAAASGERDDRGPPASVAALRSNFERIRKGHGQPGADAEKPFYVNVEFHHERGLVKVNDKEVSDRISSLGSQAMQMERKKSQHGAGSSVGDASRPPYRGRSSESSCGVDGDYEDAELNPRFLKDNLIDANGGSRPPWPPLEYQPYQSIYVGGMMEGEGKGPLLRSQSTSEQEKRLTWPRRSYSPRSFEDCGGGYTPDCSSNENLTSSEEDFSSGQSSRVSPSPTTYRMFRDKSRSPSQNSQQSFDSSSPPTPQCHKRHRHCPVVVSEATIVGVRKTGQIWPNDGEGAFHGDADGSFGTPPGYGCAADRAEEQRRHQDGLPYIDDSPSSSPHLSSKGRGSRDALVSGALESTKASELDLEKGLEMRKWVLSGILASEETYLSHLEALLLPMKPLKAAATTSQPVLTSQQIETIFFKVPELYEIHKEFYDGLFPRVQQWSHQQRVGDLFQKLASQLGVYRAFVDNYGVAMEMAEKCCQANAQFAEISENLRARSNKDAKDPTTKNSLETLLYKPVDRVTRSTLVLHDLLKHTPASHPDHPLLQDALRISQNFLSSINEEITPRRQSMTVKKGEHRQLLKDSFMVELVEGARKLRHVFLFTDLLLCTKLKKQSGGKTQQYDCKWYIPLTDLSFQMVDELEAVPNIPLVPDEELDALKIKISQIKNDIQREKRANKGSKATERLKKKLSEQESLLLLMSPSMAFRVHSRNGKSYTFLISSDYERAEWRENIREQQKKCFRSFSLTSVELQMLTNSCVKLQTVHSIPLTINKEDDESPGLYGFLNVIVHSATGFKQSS
Description: as §2

B-Raf = biological target: T2, B-Raf (Homo sapiens, UniProt P15056); assay: Z'-LYTE in vitro kinase assay; format: biochemical; details: mean ±SEM
T2 construct: made in house; host or cells: Escherichia coli BL21-Codon Plus (DE3)
T2 sequence (P15056 whole entry, species assumed): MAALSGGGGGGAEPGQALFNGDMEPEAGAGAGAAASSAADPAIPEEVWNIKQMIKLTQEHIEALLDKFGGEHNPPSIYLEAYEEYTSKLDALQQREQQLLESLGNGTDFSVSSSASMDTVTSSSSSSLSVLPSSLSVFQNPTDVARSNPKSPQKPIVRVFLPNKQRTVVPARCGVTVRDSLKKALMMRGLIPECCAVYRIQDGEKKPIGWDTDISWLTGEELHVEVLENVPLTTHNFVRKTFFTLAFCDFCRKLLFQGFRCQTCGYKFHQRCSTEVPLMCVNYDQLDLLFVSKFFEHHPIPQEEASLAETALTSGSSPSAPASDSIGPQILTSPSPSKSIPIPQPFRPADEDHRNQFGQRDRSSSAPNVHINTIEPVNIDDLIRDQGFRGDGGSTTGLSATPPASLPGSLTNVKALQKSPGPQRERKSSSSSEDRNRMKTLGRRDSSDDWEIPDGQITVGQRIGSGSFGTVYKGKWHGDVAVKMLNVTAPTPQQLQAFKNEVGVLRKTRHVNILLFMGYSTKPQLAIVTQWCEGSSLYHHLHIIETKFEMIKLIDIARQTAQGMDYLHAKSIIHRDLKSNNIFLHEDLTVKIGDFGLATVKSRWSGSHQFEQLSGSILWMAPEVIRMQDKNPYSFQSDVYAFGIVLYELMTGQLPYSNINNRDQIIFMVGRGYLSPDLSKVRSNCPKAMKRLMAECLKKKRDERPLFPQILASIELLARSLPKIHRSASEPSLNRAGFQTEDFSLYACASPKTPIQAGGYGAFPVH
Description: as §2

MEK1 = biological target: T3, MEK1 (Homo sapiens, UniProt Q02750); assay: Z'-LYTE in vitro kinase assay; format: biochemical
T3 construct: made in house; host or cells: Escherichia coli BL21-Codon Plus (DE3)
T3 sequence (Q02750 whole entry, species assumed): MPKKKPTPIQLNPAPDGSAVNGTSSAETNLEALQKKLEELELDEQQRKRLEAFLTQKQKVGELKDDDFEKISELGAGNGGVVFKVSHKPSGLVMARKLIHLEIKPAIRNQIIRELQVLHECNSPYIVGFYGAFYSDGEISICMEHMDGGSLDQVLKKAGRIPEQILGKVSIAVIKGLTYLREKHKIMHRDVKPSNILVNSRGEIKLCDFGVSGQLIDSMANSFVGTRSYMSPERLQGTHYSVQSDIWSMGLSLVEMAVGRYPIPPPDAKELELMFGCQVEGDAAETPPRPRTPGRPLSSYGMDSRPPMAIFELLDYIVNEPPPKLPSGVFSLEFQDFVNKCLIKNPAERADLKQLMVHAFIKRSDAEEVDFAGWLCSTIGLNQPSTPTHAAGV
Description: as §2

Aurora A = biological target: T4, Aurora A (Homo sapiens, UniProt O14965); assay: Z'-LYTE in vitro kinase assay; format: biochemical; details: mean ±SEM
T4 construct: made in house; host or cells: Escherichia coli BL21-Codon Plus (DE3)
T4 sequence (O14965 whole entry): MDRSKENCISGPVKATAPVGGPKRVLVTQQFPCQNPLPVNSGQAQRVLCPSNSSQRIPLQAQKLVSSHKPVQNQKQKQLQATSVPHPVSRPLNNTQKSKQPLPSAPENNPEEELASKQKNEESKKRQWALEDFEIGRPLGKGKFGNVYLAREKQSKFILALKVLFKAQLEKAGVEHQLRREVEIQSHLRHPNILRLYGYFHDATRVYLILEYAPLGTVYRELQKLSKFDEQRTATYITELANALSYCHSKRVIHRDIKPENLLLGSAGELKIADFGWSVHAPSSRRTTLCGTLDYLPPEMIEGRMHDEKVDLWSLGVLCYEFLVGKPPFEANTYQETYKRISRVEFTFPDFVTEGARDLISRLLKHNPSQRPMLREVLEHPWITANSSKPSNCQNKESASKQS
Description: as §2

SYK = biological target: T5, SYK (Homo sapiens, UniProt P43405); assay: Z'-LYTE in vitro kinase assay; format: biochemical
T5 construct: made in house; host or cells: Escherichia coli BL21-Codon Plus (DE3)
Description: as §2

IKKβ = biological target: T6, IKKβ (Homo sapiens, UniProt O14920); assay: Z'-LYTE in vitro kinase assay; format: biochemical; details: mean ±SEM
T6 construct: made in house; host or cells: Escherichia coli BL21-Codon Plus (DE3)
T6 sequence (O14920 whole entry, species assumed): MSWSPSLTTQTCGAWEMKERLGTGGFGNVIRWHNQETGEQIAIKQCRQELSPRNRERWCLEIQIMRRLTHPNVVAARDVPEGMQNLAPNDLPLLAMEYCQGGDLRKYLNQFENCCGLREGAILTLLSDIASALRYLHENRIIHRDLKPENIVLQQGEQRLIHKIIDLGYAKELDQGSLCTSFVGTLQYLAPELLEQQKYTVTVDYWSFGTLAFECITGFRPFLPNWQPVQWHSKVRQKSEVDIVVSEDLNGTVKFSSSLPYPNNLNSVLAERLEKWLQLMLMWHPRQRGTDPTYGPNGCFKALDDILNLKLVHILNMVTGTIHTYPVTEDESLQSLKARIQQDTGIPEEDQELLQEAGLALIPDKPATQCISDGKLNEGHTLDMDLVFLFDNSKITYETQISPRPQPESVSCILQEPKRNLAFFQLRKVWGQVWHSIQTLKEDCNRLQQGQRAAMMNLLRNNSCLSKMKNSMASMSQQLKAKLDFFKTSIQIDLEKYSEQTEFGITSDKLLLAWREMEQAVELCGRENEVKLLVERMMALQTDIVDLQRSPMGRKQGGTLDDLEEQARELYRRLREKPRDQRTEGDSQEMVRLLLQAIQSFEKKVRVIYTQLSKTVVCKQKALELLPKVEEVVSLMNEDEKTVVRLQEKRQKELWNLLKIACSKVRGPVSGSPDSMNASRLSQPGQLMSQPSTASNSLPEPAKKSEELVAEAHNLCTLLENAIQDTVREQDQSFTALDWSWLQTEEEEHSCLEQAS
Description: as §2

HCT116 cells = assay: Cell cycle analysis by FACS; format: cell-based, human; details: HCT116, 24 hrs
Description: (§3) Cells were seeded on 35-mm dishes and cultured for 24 hrs, reaching 60–70% confluency. The cells were treated with different concentrations of Bisindolylmaleimide IX for 24 or 48 hrs, harvested by trypsinization, resuspended in 200 μl PBS, and fixed in 100% ethanol overnight at 4°C. The fixed cells were pelleted by centrifugation, resuspended in 800 μl PBS containing ribonuclease A (100 μg/ml) and incubated for 30 min at 37°C. Then 10 μl propidium iodide (PI, 4 mg/ml PBS) were added to the samples, which were assessed on a FACSCalibur flow cytometer using Cell Quest software (BD Bioscience).

[3] = tested on: tumors derived from HCT116; assay: HCT116 carcinoma xenograft in nude mice; format: in vivo, mouse; details: 10 mg/kg for 7 days
Description: Male BALB/cASlac-nude mice (4-week-old) were purchased from Shanghai Slac Laboratory Animal C. LTD. The mice were kept in the SPF mouse facility for 1 week before being inoculated with HCT116 cells. HCT116 cells were harvested by trypsinization, counted and resuspended in PBS at the concentration of 5×10^7/ml. We injected subcutaneously 3×10^6 cells to BALB/cASlac nude mice's back. After 2 weeks, the mice were divided into 3 groups (6 mice per group) and were treated with 5-Iodotubercidin (Itu), Bisindolylmaleimide IX or solvent (PBS). The mice were weighed and the size of tumor measured. The length (L) and width (W) of the tumor were measured with a digital caliper and expressed as tumor volume (0.5L×W^2, mm^3).

MEFs = assay: Cell cycle analysis by FACS; format: cell-based, mouse; details: 24 hrs
Description: as §3

DNA topoisomerase = assay: DNA relaxation assay with extracts of treated MEFs; format: cell-based, mouse; details: supercoiled pBluescript plasmid DNA as template
Description: Bisindolylmaleimide IX and other derivatives were added to MEF cultures and 24 hrs later, the cells were washed with PBS and harvested in TNE buffer. The control and Bisindolylmaleimide IX-treated cell extracts were directly used to test the topoisomerase activity using a kit from Topogen (Port Orange, USA) following the manufacturer's protocol, or pBluescript DNA as a template. The in vitro incubation lasted 30 min at room temperature. A 2% agarose gel was run to analyze DNA unwinding (Topogen) or 0.8% gel for pBluescript DNA.

BCR-ABL BaF3 cells = assay: cells; details: Mus musculus, BaF3, 24 h, read-out: IC50, cell survival
[4] = tested on: Erk in BCR-ABL-expressing BaF3 cells; assay: Erk activation, western blot; format: cell-based, murine; details: BCR-ABL-expressing BaF3 cells but not control cells, 4 hrs
Description: as §1

p53 in HCT116 cells = assay: p53 protein level by western blot; format: cell-based, human; details: HCT116, 2.5 μM, time-dependent

CS(=O)(=O)O.Cn1cc(C2=C(c3cn(CCCSC(=N)N)c4ccccc34)C(=O)NC2=O)c2ccccc21 [Bisindolylmaleimide IX, 3-[1-[3-(Amidinothio)propyl]-3-indolyl]-4-(1-methyl-3-indolyl)-1H-pyrrole-2,5-dione methanesulfonate]
γH2AX foci formation (γH2AX foci in MEFs): numerous foci positive for γH2AX
phosphorylation of B-Raf [1]: inhibited phosphorylation of B-Raf
concentrations at which the compound seemed to precipitate in cell cultures [2]: greater than 10 μM
IC50 (Jak2): 9.68 ± 0.79 µM
IC50 (Vector BaF3 cells): > 8 µM
IC50 (K562 cells; K562, 24 h): 3.72 µM
IC50 (K562 cells; K562, 48 h): 3.48 µM
cytotoxicity (in words) (K562 cells; K562, Wst-1): highly sensitive
p53 protein up-regulation (p53 in primary MEFs): up-regulate p53 at the protein levels
IC50 (Vector MEF cells): 7.37 µM
IC50 (ERK1): > 45 µM
concentration needed to inhibit BCR-ABL in in vitro kinase assays (BCR-ABL): 45 µM
IC50 (BCR-ABL; in vitro kinase assay): > 45 µM
IC50 (B-Raf): 1.14 ± 0.11 µM
IC50 (MEK1): > 45 µM
IC50 (Aurora A): > 45 µM
IC50 (SYK): > 45 µM
IC50 (IKKβ): 0.48 ± 0.005 µM
cell cycle profile (HCT116 cells): increase in G2/M phase cells and a decrease in S phase cells
body weights of the mice [3]: not affected
tumor size [3]: did not go down
cell cycle profile (MEFs): increase in G2/M phase cells and a decrease in S phase cells
DNA relaxation (topoisomerase) activity of extract from treated cells (DNA topoisomerase): partially lost this activity
IC50 (BCR-ABL BaF3 cells): 3.26 µM
Erk activation [4]: inhibited Erk activation
p53 expression (p53 in HCT116 cells): induce p53 expression
